According to ChEMBL document CHEMBL2439975, “Aminopropyl carbazole analogues as potent enhancers of neurogenesis” (Bioorg Med Chem, 2013):
The source made the active and inactive calls. The rule behind the calls is not given here.

What was measured:
NSC [1] = test: Induction of differentiation of Sprague-Dawley rat embryo cortex NSC assessed as TUJ1-positive neurons at 5 uM after 4 days by immunostaining method relative to DMSO-treated control; format: functional
NSC [2] = test: Induction of neurogenesis of Sprague-Dawley rat embryo cortex NSC assessed as increase in beta3 tubulin mRNA expression at 5 uM after 4 days by RT-PCR method relative to DMSO-treated control; format: functional
NSC [3] = test: Cytotoxicity against Sprague-Dawley rat embryo cortex NSC assessed as effect on morphology at 10 uM after 4 days by DAPI-based phase-contrast microscopy relative to DMSO-treated control; format: cell-based; conditions: 96 h
NSC [4] = test: Neuroprotective activity against Sprague-Dawley rat embryo cortex NSC assessed as reduction of bcl2 mRNA at 5 to 10 uM after 2 days by RT-PCR method relative to DMSO-treated control; format: functional, cell-based
NSC [5] = test: Inhibition of astrocytogenesis of Sprague-Dawley rat embryo cortex NSC assessed as repression of gfap mRNA expression after 4 days by RT-PCR method relative to DMSO-treated control; format: functional, cell-based
NSC [6] = test: Neuroprotective activity against Sprague-Dawley rat embryo cortex NSC assessed as reduction of bax mRNA at 5 to 10 uM after 2 days by RT-PCR method relative to DMSO-treated control; format: functional, cell-based
NSC [7] = test: Inhibition of astrocytogenesis of Sprague-Dawley rat embryo cortex NSC assessed as downregulation of hes1 mRNA expression after 4 days by RT-PCR method relative to DMSO-treated control; format: functional, cell-based
NSC [8] = test: Cytotoxicity against Sprague-Dawley rat embryo cortex NSC assessed as cell viability at 1 to 50 uM after 2 days by MTT assay relative to DMSO-treated control; format: cell-based; conditions: 48 h
NSC [9] = test: Neuroprotective activity against Sprague-Dawley rat embryo cortex NSC assessed as […] of bcl2 to bax at 5 to 10 uM after 2 days by RT-PCR method relative to DMSO-treated control; format: functional, cell-based
NSC [10] = test: Inhibition of astrocytogenesis of Sprague-Dawley rat embryo cortex NSC assessed as downregulation of notch1 mRNA expression after 4 days by RT-PCR method relative to DMSO-treated control; format: functional, cell-based
NSC [11] = test: Induction of neurogenesis of Sprague-Dawley rat embryo cortex NSC assessed as increase in neuroD mRNA expression after 4 days by RT-PCR method relative to DMSO-treated control; format: functional, cell-based
NSC [12] = test: Antiproliferative activity against Sprague-Dawley rat embryo cortex NSC assessed as reduction in neurosphere volume at 5 to 10 uM after 5 days by neurosphere growth assay relative to DMSO-treated control in presence of EGF and FGF2; format: functional, cell-based
NSC [13] = test: Induction of neurogenesis of Sprague-Dawley rat embryo cortex NSC assessed as increase in beta3 tubulin mRNA expression after 4 days by RT-PCR method relative to DMSO-treated control; format: functional, cell-based
NSC [14] = test: Cytotoxicity against Sprague-Dawley rat embryo cortex NSC assessed as shrinkage and rounding up of cells at 20 to 50 uM after 2 days by microscopy relative to DMSO-treated control in presence of EGF and FGF2; format: cell-based; conditions: 48 h
NSC [15] = test: Induction of neurogenesis of Sprague-Dawley rat embryo cortex NSC assessed as effect on morphology at 10 uM after 4 days by DAPI-based phase-contrast microscopy relative to DMSO-treated control; format: functional, cell-based
NSC [16] = test: Neuroprotective activity against Sprague-Dawley rat embryo cortex NSC assessed as reduction of bax mRNA at 10 uM after 2 days by RT-PCR method relative to DMSO-treated control; format: functional, cell-based
NSC [17] = test: Neuroprotective activity against Sprague-Dawley rat embryo cortex NSC assessed as reduction of bcl2 mRNA at 10 uM after 2 days by RT-PCR method relative to DMSO-treated control; format: functional, cell-based
NSC [18] = test: Neuroprotective activity against Sprague-Dawley rat embryo cortex NSC assessed as […] of bcl2 to bax at 10 uM after 2 days by RT-PCR method relative to DMSO-treated control; format: functional, cell-based

| Compound | fold change (FC) (NSC [1]) | other results |
| --- | --- | --- |
| OC(CNc1ccc2c(c1)OCO2)Cn1c2ccc(Br)cc2c2cc(Br)ccc21 (stereo not drawn) | 0.88 | – |
| COc1cccc(NCC(F)Cn2c3ccccc3c3ccccc32)c1 (stereo not drawn) | 1.07 | – |
| COc1cccc(N(C)CC(O)Cn2c3ccc(Br)cc3c3cc(Br)ccc32)c1 (stereo not drawn) | 1.42 | – |
| OC(CNc1ccccc1)Cn1c2ccc(Br)cc2c2cc(Br)ccc21 (stereo not drawn) | 1.47 | – |
| COc1cccc(N(CC(O)Cn2c3ccc(Br)cc3c3cc(Br)ccc32)C(C)=O)c1 (stereo not drawn) | 1.25 | – |
| COc1cccc(NCC(=O)Cn2c3ccc(Br)cc3c3cc(Br)ccc32)c1 | 1.02 | – |
| COc1ccc(NCC(O)Cn2c3ccc(Br)cc3c3cc(Br)ccc32)cc1OC (stereo not drawn) | 1.67 | fold change (FC) (NSC [2]): 1.47; Activity (NSC [3]): Toxic |
| COc1cccc(NCC(O)Cn2c3ccc(Br)cc3c3cc(Br)ccc32)c1 (stereo not drawn) | 1.16 | – |
| COc1cccc(N(CC(Cn2c3ccc(Br)cc3c3cc(Br)ccc32)OC(C)=O)S(=O)(=O)c2ccc(C)cc2)c1 (stereo not drawn) | 0.65 | – |
| COc1cccc(N(Cc2ccccc2)CC(F)Cn2c3ccc(Br)cc3c3cc(Br)ccc32)c1 (stereo not drawn) | 0.58 | – |
| OC(CNc1ccc(Cl)cc1)Cn1c2ccc(Br)cc2c2cc(Br)ccc21 (stereo not drawn) | 1.29 | – |
| COc1cccc(NCC(Cn2c3ccccc3c3ccccc32)OC(C)=O)c1 (stereo not drawn) | 0.39 | – |
| COc1cccc(NCC(Cn2c3ccc(Br)cc3c3cc(Br)ccc32)OC(C)=O)c1 (stereo not drawn) | 0.63 | – |
| COc1cccc(OCC(F)Cn2c3ccc(Br)cc3c3cc(Br)ccc32)c1 (stereo not drawn) | 0.87 | – |
| COc1cccc(N(Cc2ccccc2)CC(O)Cn2c3ccc(Br)cc3c3cc(Br)ccc32)c1 (stereo not drawn) | 0.57 | – |
| COc1cccc(N(CC(=O)Cn2c3ccc(Br)cc3c3cc(Br)ccc32)S(=O)(=O)c2ccc(C)cc2)c1 | 0.52 | – |
| COc1cccc(N(CC(O)Cn2c3ccc(Br)cc3c3cc(Br)ccc32)S(=O)(=O)c2ccc(C)cc2)c1 (stereo not drawn) | 1.52 | Activity (NSC [4]): Active; fold change (FC) (NSC [2]): 1.43; inhibition (NSC [5]): Dose-dependent effect; Activity (NSC [6]): Active; inhibition (NSC [7]): Dose-dependent effect; Activity (NSC [8]): Non-toxic; Activity (NSC [9]): Active; inhibition (NSC [10]): Dose-dependent effect; Activity (NSC [11]): Dose-dependent effect; Activity (NSC [12]): Active; Activity (NSC [13]): Dose-dependent effect; Activity (NSC [14]): Non-toxic; Activity (NSC [15]): Active |
| COc1ccc(NCC(O)Cn2c3ccc(Br)cc3c3cc(Br)ccc32)cc1 (stereo not drawn) | 1.17 | – |
| COc1cccc(N(CC(Cn2c3ccc(Br)cc3c3cc(Br)ccc32)OC)S(=O)(=O)c2ccc([N+](=O)[O-])cc2)c1 (stereo not drawn) | 0.92 | – |
| COc1cccc(N(CC(Cn2c3ccc(Br)cc3c3cc(Br)ccc32)OC)S(=O)(=O)c2ccc(C)cc2)c1 (stereo not drawn) | 0.73 | – |
| COc1cccc(NC/C(Cn2c3ccc(Br)cc3c3cc(Br)ccc32)=N\O)c1 | 1.13 | – |
| Cc1ccc(NCC(O)Cn2c3ccc(Br)cc3c3cc(Br)ccc32)cc1 (stereo not drawn) | 1.88 | Activity (NSC [3]): Toxic |
| COc1cccc(OCC(O)Cn2c3ccc(Br)cc3c3cc(Br)ccc32)c1 (stereo not drawn) | 1.12 | – |
| COc1cccc(NCC(F)Cn2c3ccc(Br)cc3c3cc(Br)ccc32)c1 (stereo not drawn) | 1.16 | Activity (NSC [16]): inactive; Activity (NSC [8]): Non-toxic; Activity (NSC [14]): Toxic; Activity (NSC [17]): Active; Activity (NSC [18]): Active |
| COc1cccc(NCC(Cn2c3ccc(Br)cc3c3cc(Br)ccc32)OC(=O)OC(C)(C)C)c1 (stereo not drawn) | 1.25 | – |
| COc1cccc(NCC(F)Cn2c3ccccc3c3cc(Br)ccc32)c1 (stereo not drawn) | 0.86 | – |
| COc1cccc(NCC(Cn2c3ccc(Br)cc3c3cc(Br)ccc32)OC)c1 (stereo not drawn) | 0.96 | – |
